In PMC6792352, “Limited Chemical Structural Diversity Found to Modulate Thyroid Hormone Receptor in the Tox21 Chemical Library” (Environmental Health Perspectives, 2019):
Counter-ions that a name gives are not always drawn.

Experiment: in vitro
Conditions: rat, gh3-tre-luc cells

Row | SMILES | CC50 at 24 h (AC50 (uM) modified / 1000) | CC50 at 24 h (AC50 (uM) modified / 1000, Tox21_110001=Tox21_200635, viability, 1 nM T3 present, 24 h)
1 | CC(C)=CCOc1ccc(/C=C/C(=O)c2ccc(OCC=C(C)C)cc2OCC(=O)O)cc1 [Sofalcone] | 43 µM | –
2 | O=C(O[C@H]1CN2CCC1CC2)N1CCc2ccccc2[C@@H]1c1ccccc1 [Solifenacin hydrochloride] | 19.6 µM | –
3 | CNC(=O)c1cc(Oc2ccc(NC(=O)Nc3ccc(Cl)c(C(F)(F)F)c3)cc2)ccn1 [Sorafenib tosylate] | 9.89 µM | –
4 | O=C1NC(=O)[C@@]2(CCOc3ccc(F)cc32)N1 [Sorbinil] | > 50 µM | –
5 | CCCCCCCCCCCC(=O)OC[C@@H](O)[C@H]1OC[C@H](O)[C@H]1O [Sorbitan monododecanoate] | > 50 µM | –
6 | CCCCCCCCCCCCCCCC(=O)OC[C@@H](O)[C@H]1OC[C@H](O)[C@H]1O [Sorbitan monohexadecanoate] | > 50 µM | –
7 | CCCCCCCC/C=C\CCCCCCCC(=O)OC[C@@H](O)[C@H]1OC[C@H](O)[C@H]1O [Sorbitan, mono-(9Z)-9-octadecenoate] | > 50 µM | –
8 | CC(C)NCC(O)c1ccc(NS(C)(=O)=O)cc1 (centres unmarked) [Sotalol hydrochloride] | > 90 µM | –
9 | C[C@@H]1CN(c2c(F)c(N)c3c(=O)c(C(=O)O)cn(C4CC4)c3c2F)C[C@H](C)N1 [Sparfloxacin] | > 50 µM | –
10 | C1CCN2C[C@@H]3C[C@@H](CN4CCCC[C@@H]34)[C@H]2C1 [Sparteine] | > 20 µM | –
11 | CN[C@@H]1[C@H](O)[C@H](NC)[C@H]2O[C@@]3(O)C(=O)C[C@@H](C)O[C@H]3O[C@@H]2[C@H]1O [Spectinomycin dihydrochloride] | > 20 µM | –
12 | O=C1CSC2(CCN(CCCN3c4ccccc4Sc4ccc(Cl)cc43)CC2)N1 [Spiclomazine hydrochloride] | 6.81 µM | –
13 | O=C(CCCN1CCC2(CC1)C(=O)NCN2c1ccccc1)c1ccc(F)cc1 [Spiperone] | 14.1 µM | –
14 | CO[C@@H]1[C@@H](O[C@@H]2O[C@H](C)[C@@H](O[C@H]3C[C@@](C)(O)[C@@H](O)[C@H](C)O3)[C@H](N(C)C)[C@H]2O)[C@@H](CC=O)C[C@@H](C)[C@@H](O[C@H]2CC[C@H](N(C)C)[C@@H](C)O2)/C=C/C=C/C[C@@H](C)OC(=O)C[C@H]1OC(C)=O [Spiramycin II] | 32.1 µM | –
15 | CCOC(=O)[C@H](CCc1ccccc1)N[C@@H](C)C(=O)N1CC2(C[C@H]1C(=O)O)SCCS2 [Spirapril hydrochloride] | > 50 µM | –
16 | CCC(C)(C)C(=O)OC1=C(c2ccc(Cl)cc2Cl)C(=O)OC12CCCCC2 [Spirodiclofen] | > 90 µM | –
17 | Cc1cc(C)c(C2=C(OC(=O)CC(C)(C)C)C3(CCCC3)OC2=O)c(C)c1 [Spiromesifen] | > 100 µM | –
18 | CCOC(=O)OC1=C(c2cc(C)ccc2C)C(=O)N[C@]12CC[C@@H](OC)CC2 [Spirotetramat] | > 90 µM | –
19 | CCCN(CC)CC1COC2(CCC(C(C)(C)C)CC2)O1 (centres unmarked) [Spiroxamine] | > 90 µM | –

Row | SMILES | CC50 at 24 h (AC50 (uM) modified / 1000) | CC50 at 24 h (AC50 (uM) modified / 1000, Tox21_110001=Tox21_200635, viability, 1 nM T3 present, 24 h)
20 | O=C1NCN(c2ccccc2)C12CCN(CC1COc3ccccc3O1)CC2 (centres unmarked) [Spiroxatrine] | 36.3 µM | –
21 | CC(C)CCCC(C)CCCC(C)CCCCC(C)CCCC(C)CCCC(C)C (centres unmarked) [Squalane] | > 50 µM | –
22 | O=c1c(O)c(O)c1=O [Squaric acid] | > 90 µM | –
23 | Cn1cc(NC(=O)c2cc(NC(=O)c3cc(NC=O)cn3C)cn2C)cc1C(=O)NCCC(=N)N [Stallimycin] | > 50 µM | –
24 | Cc1cn([C@H]2C=C[C@@H](CO)O2)c(=O)[nH]c1=O [Stavudine] | > 90 µM | –
25 | C=C(C)C(=O)OCCCCCCCCCCCCCCCCCC [Stearyl methacrylate] | > 20 µM | –
26 | CC[N+](CC)(CC)CCOc1ccc(/C=C/c2ccccc2)cc1 [Stilonium iodide] | > 50 µM | –
27 | CC(C)(C)C(O)/C=C/c1ccc2c(c1)OCO2 (centres unmarked) [Stiripentol] | > 50 µM | –
28 | [H]/N=C(/N)N[C@H]1[C@H](O)[C@@H](O)[C@H](O[C@@H]2O[C@@H](C)[C@](O)(C=O)[C@H]2O[C@@H]2O[C@@H](CO)[C@H](O)[C@@H](O)[C@@H]2NC)[C@@H](N/C(N)=N\[H])[C@@H]1O [Streptomycin sulfate (2:3)] | > 50 µM | –
29 | CC1(C)C2(Cl)C(Cl)C(Cl)C(Cl)(C(Cl)Cl)C1(Cl)C2Cl (centres unmarked) [Strobane] | 21 µM | –
30 | O=C1C[C@@H]2OCC=C3CN4CC[C@]56c7ccccc7N1[C@H]5[C@H]2[C@H]3C[C@H]46 [Strychnine] | > 50 µM | –
31 | OCC(O)c1ccccc1 (centres unmarked) [Styrene glycol] | > 90 µM | –
32 | c1ccc(C2CO2)cc1 (centres unmarked) [Styrene oxide] | > 90 µM | –
33 | C=Cc1ccccc1 [Styrene] | > 90 µM | –
34 | O=C1CCC(=O)O1 [Succinic anhydride] | > 90 µM | –
35 | N#CCCC#N [Succinonitrile] | – | > 90 µM
36 | C[N+](C)(C)CCOC(=O)CCC(=O)OCC[N+](C)(C)C [Succinylcholine chloride] | > 50 µM | –
37 | O=C(O)CCC(=O)Nc1ccc(S(=O)(=O)Nc2nccs2)cc1 [Succinylsulfathiazole] | > 20 µM | –
38 | OC[C@H]1O[C@H](O[C@]2(CCl)O[C@H](CCl)[C@@H](O)[C@@H]2O)[C@H](O)[C@@H](O)[C@H]1Cl [Sucralose] | > 90 µM | –

Row | SMILES | CC50 at 24 h (AC50 (uM) modified / 1000) | CC50 at 24 h (AC50 (uM) modified / 1000, Tox21_110001=Tox21_200635, viability, 1 nM T3 present, 24 h)
39 | CC(=O)OC[C@H]1O[C@@](COC(C)=O)(O[C@H]2O[C@H](COC(C)=O)[C@@H](OC(C)=O)[C@H](OC(C)=O)[C@H]2OC(C)=O)[C@@H](OC(C)=O)[C@@H]1OC(C)=O [Sucrose octaacetate] | > 70 µM | –
40 | O=S(=O)(O)OC[C@H]1O[C@@](COS(=O)(=O)O)(O[C@H]2O[C@H](COS(=O)(=O)O)[C@@H](OS(=O)(=O)O)[C@H](OS(=O)(=O)O)[C@H]2OS(=O)(=O)O)[C@@H](OS(=O)(=O)O)[C@@H]1OS(=O)(=O)O [Sucrose octasulfate, sodium salt] | > 50 µM | –
41 | OC[C@H]1O[C@@](CO)(O[C@H]2O[C@H](CO)[C@@H](O)[C@H](O)[C@H]2O)[C@@H](O)[C@@H]1O [Sucrose] | > 90 µM | –
42 | CN1C(=S)CN=C(c2ccccc2)c2cc(Cl)ccc21 [Sulazepam] | > 50 µM | –
43 | CC1(C)[C@H](C(=O)O)N2C(=O)C[C@H]2S1(=O)=O [Sulbactam] | > 50 µM | –
44 | CC1(C)S[C@@H]2[C@H](NC(=O)C(c3ccccc3)S(=O)(=O)O)C(=O)N2[C@H]1C(=O)O (some centres unmarked) [Sulbenicillin disodium] | > 50 µM | –
45 | S=C1SCN(Cc2ccccc2)CN1Cc1ccccc1 [Sulbentine] | 23.1 µM | –
46 | CCOC(=O)c1ccc(NC(=O)CN2CCCCC2)cc1 [Sulcaine] | > 50 µM | –
47 | Nc1ccc(S(=O)(=O)Nc2ccccc2)cc1 [Sulfabenz] | > 50 µM | –
48 | Nc1ccc(S(=O)(=O)NC(=O)c2ccccc2)cc1 [Sulfabenzamide] | > 20 µM | –
49 | Cc1nc(NS(=O)(=O)c2ccc(N)cc2)nc(C)c1Br [Sulfabromomethazine] | > 50 µM | –
50 | NC(=O)NS(=O)(=O)c1ccc(N)cc1 [Sulfacarbamide] | > 50 µM | –
51 | CC(=O)NS(=O)(=O)c1ccc(N)cc1 [Sulfacetamide] | > 90 µM | –
52 | Nc1ccc(S(=O)(=O)Nc2ncccn2)cc1 [Sulfadiazine] | > 20 µM | –
53 | COc1cc(NS(=O)(=O)c2ccc(N)cc2)nc(OC)n1 [Sulfadimethoxine] | > 20 µM | –
54 | COc1ncnc(NS(=O)(=O)c2ccc(N)cc2)c1OC [Sulfadoxine] | > 50 µM | –
55 | CCc1nnc(NS(=O)(=O)c2ccc(N)cc2)s1 [Sulfaethidole] | > 50 µM | –
56 | CCOc1ccc(NS(=O)(=O)c2ccc(N)cc2)nn1 [Sulfaethoxypyridazine] | > 50 µM | –
